Results published in US8729048B2, “Methods and materials for assessing responsiveness to PARP inhibitors and platinating agents” (Mayo Foundation for Medical Education and Research, priority 2011, dated 2014).

Key:
[1] = tested on: DNA-PK substrates (DNA-PKcs Thr2609, Histone H2AX Ser139) in PEO1 cells; test: Immunoblotting for phosphorylation of DNA-PK substrates; assay type: cell-based; conditions: 72 hours
Experimental: FIG. 2. DNA-PK is activated following PARP inhibitor exposure in PEO1 cells. (A) Western blots for poly(ADP-ribose) polymer (pADPr) and phosphorylation of DNA-PK substrates (DNA-PKcs autophosphorylation at Thr^2609 and Histone H2AX at Ser^139) in PEO1 cells following 72 hours exposure to increasing concentrations of ABT-888 (0, 0.625, 1.25, 2.5, 5, 10, 20, and 40 μM). Hsp90, total DNA-PKcs, and Histone H1 are used as loading controls. (B) Phosphorylation of DNA-PK substrates after treatment for 72 hours with diluent (0.2% DMSO, lanes 1 and 4), 500 nM DNA-PK inhibitor AZ12594248 (DNA-PKi, lanes 2 and 5), or 5 μM ATM inhibitor KU55933 (ATMi, lanes 3 and 6) alone (lanes 1-3) or in combination with 20 μM ABT-888 (lanes 4-6). (C) Quantitation of cells positive for phospho-H2AX foci in PEO1 and PEO4 cells, following treatment with DMSO, 500 nM DNA-PKi, 20 μM ABT-888 (ABT), ABT-888 and DNA-PKi, 50 μM Etoposide (Etop), or 5 Gy ionizing radiation (IR). Cells were exposed to ABT-888 and/or DNA-PKi for 72 hours, etoposide for 1 hour, or allowed to recover for 1 hour after IR. Results are reported as mean±SEM of 3 independent experiments. (D) Confocal images of PEO1 cells treated as in […]. Phospho-Ser^139-H2AX is shown in green, phospho-Thr^2609-DNA-PKcs in red, and Hoechst 33258 in blue.
Cells were washed twice with calcium- and magnesium-free Dulbecco's phosphate-buffered saline (PBS) and solubilized in 6 M guanidine hydrochloride containing 250 mM Tris-HCl, pH 8.5 at 20° C., 10 mM EDTA, 1% (v/v) 2-mercaptoethanol, and 1 mM freshly added phenylmethylsulfonyl fluoride. After preparation for electrophoresis as described elsewhere (Kaufmann et al., Blood, 89:2098-2104 (1997)), aliquots containing 50 μg of protein (determined by the bicinchoninic acid method—S10) were separated on SDS-polyacrylamide gels containing 8% (w/v) acrylamide, electrophoretically transferred to nitrocellulose, and probed with immunological reagents as described elsewhere (Kaufmann, Anal. Biochem., 296:283-286 (2001)). […]

[2] = tested on: BRCA2-deficient PEO1 cells; test: Clonogenic assay, PEO1; assay type: cell-based
Experimental: FIG. 5. NHEJ is a major contributor to PARP inhibitor effects in BRCA2-deficient cells. (A) Western blots showing knockdown of Ku80 in PEO1 and PEO4 cells. (B) Clonogenic survival of PEO1 and PEO4 cells from (A), which were treated with the indicated ABT-888 concentration for 72 hours, washed, and allowed to form colonies. (C) Western blots following treatment with siRNA targeting luciferase (control), Ku80, PARP1, or both Ku80 and PARP1. (D) Clonogenic viability of PEO 1 and PEO4 cells from (C). Following knockdown, cells were plated onto triplicate plates and allowed to form colonies. (E) Clonogenic survival of PEO1 cells following Artemis knockdown. After treatment with the indicated siRNA, plates were treated with indicated concentration of ABT-888 for 72 hours, washed, and allowed to form colonies. Inset, Western blots showing knockdown using luciferase (control) or Artemis siRNAs in PEO1 cells. (F) Clonogenic survival of PEO1 and PEO4 cells treated for 72 hours with ABT-888 in combination with diluent or 500 nM DNA-PKi. All results are reported as means of triplicate plates±SEM, and are representative of 3 independent experiments.
FIG. 13. DNA-PK inhibition diminishes the lethality of multiple PARP inhibitors in PEO1 cells. (A) Representative clonogenic plates after PEO1 cells were treated with ABT-888 (0, 5, or 20 μM) with or without 500 nM DNA-PKi. (B, C) Bar graphs comparing clonogenic survival of PEO1 cells exposed to two PARP inhibitors with or without 500 nM DNA-PKi. The PARP inhibitors used for these assays are ABT-888 (B) and AZD2281/olaparib (C). Results are reported as mean±SEM of triplicate plates.
FIG. 18. Artemis knockdown confers resistance to PARP inhibition and cisplatin in BRCA2-deficient/mutant cells. Clonogenic survival assays of PEO1 shRNA lines continuously exposed to ABT-888 (A) or cisplatin (B), or exposed to ionizing radiation (C). (D-F) Clonogenic survival assays of CAPAN1 shRNA lines exposed to ABT-888 (D), cisplatin (E), or exposed to ionizing radiation (F).
Colony formation assays were performed on siRNA-transfected PEO1 and PEO4 cells 48 hours after the second transfection. Cells were trypsinized and plated at 750 cells/plate in triplicate 60-mm dishes containing medium A, allowed to grow 10-14 days, and stained with Coomassie Brilliant Blue. Colonies containing ≧50 cells were scored manually. To assess methyl methanesulfonate (MMS) sensitivity, PEO1 or PEO4 cells were incubated for 48 hours after the second siRNA treatment, plated onto 60-mm dishes, allowed to adhere for 4 hours, exposed to the indicated concentration of MMS (Sigma-Aldrich) for 1 hour, washed with sterile RPMI 1640, and allowed to grow into colonies in medium A. For drug treatment, cells (without siRNA) were allowed to adhere for 4-6 hours, then treated with the indicated concentrations of ABT-888 and/or AZ12594248 for 72 hours. Following drug treatment, cells were washed with drug-free RPMI 1640, cultured for 10-14 days in medium A, and stained. For HCC1937 and HCC1937/BRCA1 cells, a similar procedure was used with several changes: 1000 cells were plated in medium B, and treatment was continuous for 16-20 days. M059J and M059J+DNA-PKcs were plated at 1000 cells per plate in medium C and treated for 48 hours. GM16666 and 16667 were plated at 1000 cells per plate in medium D and treated for 48 hours.

SMILES | phosphorylation of DNA-PKcs at Thr2609 and H2AX at Ser139 ([1]; ABT-888 0-40 μM) | clonogenic survival ([2]; PEO1 cells, 72 hours) | clonogenic survival with ABT-888 after siRNA depletion of Artemis ([2]; PEO1 cells, Artemis siRNA, 72 hours) | clonogenic survival with ABT-888 after Ku80 knockdown ([2]; PEO1 cells, Ku80 siRNA, 72 hours) | clonogenic sensitivity after stable Artemis knockdown ([2]; PEO1 shRNA lines, continuous exposure) | effect on ABT-888-induced phosphorylation of DNA-PKcs and H2AX ([1]; with 20 μM ABT-888, 500 nM DNA-PKi or 5 μM ATMi) | effect of co-administration on AZD2281 clonogenic lethality ([2]; PEO1 cells, 500 nM DNA-PKi) | effect of co-administration on ABT-888 clonogenic lethality ([2]; PEO1 cells, 500 nM DNA-PKi, 72 hours)
C[C@]1(c2nc3c(C(N)=O)cccc3[nH]2)CCCN1 [ABT-888] | phosphorylated in a dose-dependent manner | decreased the clonogenic survival | reversed the lethality | markedly enhanced the survival | conferred resistance | – | – | –
CCN1CCN(CC(=O)Nc2ccc(-c3cccc4c(=O)cc(N5CCOCC5)oc34)c3sc4ccccc4c23)CC1 [AZ 12594248] | – | – | – | – | – | prevented the ABT-888-induced phosphorylation of DNA-PKcs and H2AX | diminished the effects | diminished the effects
